This note sets out measurements from BindingDB's records for doi:10.1016/s0960-894x(01)00477-2 (Section De Chimie De L'Universit&#163, 2001).

The nature of assay [1]: Inhibitory activity towards Beta-Glucosidase from Almond.
Test in assay [2]: as above
The source holds these as a separate data set.

Assay [3] in a line: Inhibitory activity towards Alpha-mannosidase from jack bean.
The nature of assay [4]: Inhibitory activity towards Alpha-mannosidase from Jack bean.
Test in assay [5]: as above
The source holds these as a separate data set.

Assay [6] is described as follows: Inhibitory activity towards Alpha-mannosidase from Almond.
Assay [7] can be described thus: Inhibitory activity towards Beta-Glucosidase from Almond. The source holds these as a separate data set.
Assay [8] in a line: Inhibitory activity towards Alpha-mannosidase from Almond. The source holds these as a separate data set.
Test in assay [9]: as above
The source holds these as a separate data set.

Assay [10] in a line: Inhibitory activity towards Beta-Glucosidase from Almond. This is another data set of the same source.

In assay [1], `CC(=O)N(Cc1ccccc1)CC1NCC(O)C1O` (stereo not drawn) [N-Benzyl-N-(3,4-dihydroxy-pyrrolidin-2-ylmethyl)-acetamide] yielded a Ki of 220 µM. This molecule showed an IC50 in assay [2] of 430 µM.

For `OC1CNC(CNC2CCCC2)C1O` (stereo not drawn) [2-Cyclopentylaminomethyl-pyrrolidine-3,4-diol], the IC50 amounted to 560 µM in assay [3] and 500 µM in assay [2].

For `OC(O)CC1NCC(O)C1O` (stereo not drawn) [2-(2,2-Dihydroxy-ethyl)-pyrrolidine-3,4-diol], in assay [4], it took 180 µM to reach half-maximal inhibition (IC50). In assay [5], this molecule had an inhibition constant Ki of 80 µM.

With `OC1CNC(CNCc2ccccc2)C1O` (stereo not drawn) [2-(Benzylamino-methyl)-pyrrolidine-3,4-diol], the IC50 in [2] came out at 370 µM.

Regarding `NCC1NCC(O)C1O` (stereo not drawn) [2-Aminomethyl-pyrrolidine-3,4-diol], the IC50 in [4] turned out to be 170 µM; in assay [6], 1000 µM. Further, in assay [5], affinity was put at a Ki of 53 µM.

On to `CC(NCC1NCC(O)C1O)C(O)(c1ccccc1)c1ccccc1` (stereo not drawn) [2-[(2-Hydroxy-1-methyl-2,2-diphenyl-ethylamino)-methyl]-pyrrolidine-3,4-diol], for which the IC50 in assay [3] was found to be 440 µM; in [2], 550 µM. The affinity in assay [5], expressed as Ki, was 170 µM.

`C[C@@H](NCC1NCC(O)C1O)c1ccccc1` (stereo partly drawn) [2-[((R)-1-Phenyl-ethylamino)-methyl]-pyrrolidine-3,4-diol] gave an IC50 in [4] of 440 µM. Moreover, in [5], the affinity, expressed as Ki, was 170 µM.

Consider `OCC(O)[C@H]1NC[C@H](O)[C@@H]1O` (stereo partly drawn), for which the IC50 came to 120 µM in assay [7] and 800 µM in [3]. In assay [1], this molecule displayed a Ki of 53 µM.

With `OC1CNC(CNCc2cccs2)C1O` (stereo not drawn) [2-{[(Thiophen-2-ylmethyl)-amino]-methyl}-pyrrolidine-3,4-diol], the figures for the Ki in assay [8] and in assay [5] were 98 µM and 26 µM, respectively. The same molecule yielded an IC50 in [9] of 350 µM.

As for `OC1CNC(CNCc2ccco2)C1O` (stereo not drawn) [2-{[(Furan-2-ylmethyl)-amino]-methyl}-pyrrolidine-3,4-diol], in [10], the Ki was 12 µM. The concentration for half-maximal inhibition (IC50) in assay [2] was 140 µM.

On to `OC1CNC(CNCn2ccnc2)C1O` (stereo not drawn) [2-{[(Imidazol-1-ylmethyl)-amino]-methyl}-pyrrolidine-3,4-diol], for which the IC50 in assay [4] is 700 µM; in [6], 570 µM; in assay [2] it was 420 µM.

Regarding `OC1CNC(CNCC2CCN(Cc3ccccc3)CC2)C1O` (stereo not drawn) [2-{[(1-Benzyl-piperidin-4-ylmethyl)-amino]-methyl}-pyrrolidine-3,4-diol], the figures for the 50% inhibitory concentration (IC50) in [4] and in assay [2] were 700 µM and 430 µM, respectively.
